Reference: patent US8722088B2, “Pharmaceutical compositions and methods for the treatment of prostate cancer” (Ferring International Center S.A., priority 2009, dated 2014)
Entries after “also recorded” stand apart in the source; their conditions may differ. Where two headings read alike, the source gives them in different places. Where a SMILES comes first, the peptide text is derived from it. [ ]: non-standard residue; d: D form. The star is where a group is joined. dPhe(4-NHCONH2) = NC(=O)Nc1ccc(C[C@@H](N)C(=O)O)cc1; Dihydroorotyl(S) = O=C1C[C@@H](C(=O)*)NC(=O)N1; dPhe(4-Cl) = N[C@H](Cc1ccc(Cl)cc1)C(=O)O; Phe(4-NH2) = Nc1ccc(C[C@H](N)C(=O)O)cc1; d2Nal = N[C@H](Cc1ccc2ccccc2c1)C(=O)O; Lys(iPr) = CC(C)NCCCC[C@H](N)C(=O)O; d3Pal = N[C@H](Cc1cccnc1)C(=O)O

Columns and labels:
serum testosterone [1] = test: Previous studies, population PK/PD: proportion of patients with serum testosterone ≦0.5 ng/mL versus plasma degarelix concentration; assay type: in vivo, human
Description: Throughout the ongoing degarelix development program, population pharmacokinetic/pharmacodynamic (PK/PD) modeling and simulations have been employed to get a better understanding of the PK and PD data, and the relationship between these and other parameters. […] Because of the variability in the population, it was considered that this median plasma concentration might not be sufficient to maintain long-term testosterone suppression in approximately 95% of the patients. It was therefore proposed that the dose administered should produce mean serum trough degarelix levels of >9 ng/ml or higher in the Phase 3 studies for the one-month dosing regimen program.
The relationship between proportion of patients castrated [(T)≦0.5 ng/mL] and degarelix concentration after day 28 is illustrated in FIG. 1. FIG. 1 is based on data from 1473 prostate cancer patients in clinical studies by dividing PK levels into intervals 0-1, 1-2, 2-3 ng/mL and so forth and plotting observed proportions against PK interval midpoints together with a smoothing line with 95% confidence interval (CI). Based on this information, approximately 97% of the patients are castrated provided that degarelix concentrations stay above a threshold value of 9-10 ng/mL.

serum testosterone [2] = test: One-month dosing regimen clinical program: testosterone suppression to castrate level; assay type: in vivo, human; conditions: for testosterone response rate: Day 28 to Day 364
Procedure: Other studies establish that degarelix or pharmaceutically acceptable salt thereof at a dose of 240 mg (40 mg/mL) is an effective starting dose. […] With dosing at 0 months and an additional dosage at 1 month, it is believed that a steady state level is reached faster and this is (together with formulation, dose and concentration) a factor for consideration to obtain and maintain therapeutic levels in the patient. Use of a higher dose as the starting dose to have a ‘true’ 3 month depot is not feasible because of the combined requirements of a sufficient starting/loading phase release to allow buildup of degarelix plasma concentration; and at the same time sufficient long term release to achieve sufficiently high steady state concentration for 3 months. […] This is surprising given the high doses (and concentrations) of degarelix in the defined maintenance dose(s).

clinical [3] = conditions: human, in vivo, 240 mg
Procedure: A three-month dosing regimen Phase 2 study investigated three different dosing regimens. After a starting dose of […] (with a concentration of 40 mg/mL of solvent), a further dose (i.e., maintenance dose) of 240 mg was given on Day 28, and then at Months 3, 6, and 9 or at Months 4, 7, and 10. Maintenance doses of 240 mg were evaluated initially at concentrations of 40 mg/mL and 60 mg/mL in this study, based on the observed results by different PK profiles of different concentrations. The patients were randomized in parallel to one of three different three-month maintenance dosing regimens of degarelix:
Thus, patients with lower degarelix plasma levels were more likely to have a testosterone level>0.5 ng/mL during the one year treatment period. […] This is consistent with the observation that for most patients, the time of first occurrence of a testosterone level>0.5 ng/mL was three months after a previous dose, at the time of trough degarelix plasma levels. The median trough degarelix plasma levels in the study ranged from about 6.5-7.5 ng/mL.

PSA = test: Clinical trial CS18: PSA change from baseline; assay type: in vivo, human
Procedure: PSA is a commonly used marker in the diagnosis of prostate cancer and has more recently also been used to monitor response to treatment as well as disease recurrence and progression (Fleming et al. (2006) Nat. Clin. Pract. Oncol. 3: 658-68; Lilja, et al. (2008) Nat. Rev. Cancer 8: 268-78). In general, higher levels of PSA are associated with more severe forms of prostate cancer, with metastatic stage prostate cancer being associated with the highest level of PSA (e.g., >50 ng/mL). Accordingly, rising PSA levels in patients undergoing prostate cancer treatment are associated with incomplete or failed efficacy of the treatment. Here, there were further reductions in PSA after Month 1 and the median reductions were sustained throughout the study period (median reductions of 96-97%).

[4] = human, in vivo, 80 mg
[5] = male, human, in vivo, sc
Procedure: (§1) The present study included a starting degarelix dose of 240 mg (with a concentration of 40 mg/mL of solvent), followed by maintenance doses of degarelix: i.e., 360 mg (with a concentration of 60 mg/mL of solvent) or 480 mg (with a concentration of 60 mg/mL of solvent), the latter administered at Months 1, 4, 7, and 10.
(§2) The study was open labeled and patients received a starting dose of 240 mg (with a concentration of 40 mg/mL of solvent) at Month 0 followed by one of two degarelix maintenance dose treatment regimens: 360 mg (with a concentration of 60 mg/mL of solvent) at Months 1, 4, 7, and 10; or 480 mg (with a concentration of 60 mg/mL of solvent) at Months 1, 4, 7, and 10.
(§3) The starting dose was administered subcutaneously as two injections of 120 mg (with a concentration of 40 mg/ml of solvent, given as 2×3 mL injections). After 28 days a maintenance dose of 360 mg (with a concentration of 60 mg/mL, given as 2×3 mL injections) or 480 mg (with a concentration of 60 mg/mL, given as 2×4 mL injections) was administered, also in two injections (each of 240 mg). Thereafter, with three monthly intervals, maintenance doses were given, again in the form of two injections. […] At each visit, serum testosterone, prostate specific androgen (PSA), and plasma concentration of degarelix were measured by techniques well known in the art.

[6] = human, in vivo
Description: At the data cut-off date (i.e., seven months after commence of the clinical trial), 133 patients with prostate cancer were exposed to degarelix in the Phase 2, three-month dosing regimen clinical program (CS18).

clinical [7] = conditions: male, human, in vivo, sc
Procedure: as §1, §2, §3

Q: What does the source list for `CC(=O)N[C@H](Cc1ccc2ccccc2c1)C(=O)N[C@H](Cc1ccc(Cl)cc1)C(=O)N[C@H](Cc1cccnc1)C(=O)N[C@@H](CO)C(=O)N[C@@H](Cc1ccc(NC(=O)[C@@H]2CC(=O)NC(=O)N2)cc1)C(=O)N[C@H](Cc1ccc(NC(N)=O)cc1)C(=O)N[C@@H](CC(C)C)C(=O)N[C@@H](CCCCNC(C)C)C(=O)N1CCC[C@H]1C(=O)N[C@H](C)C(N)=O` [Degarelix, D-Alaninamide, N-acetyl-3-(2-naphthalenyl)-D-alanyl-4-chloro-D-phenylalanyl-3-(3-pyridinyl)-D-alanyl-L-seryl-4-[[[(4S)-hexahydro-2,6-dioxo-4-pyrimidinyl]carbonyl]amino]-L-phenylalanyl-4-[(aminocarbonyl)amino]-D-phenylalanyl-L leucyl-N6-(1-methylethyl)-L-lysyl-L-prolyl] (Ac-[d2Nal][dPhe(4-Cl)][d3Pal]S[Phe(4-NH2)](Dihydroorotyl(S))[dPhe(4-NHCONH2)]L[Lys(iPr)]P[dA]-NH2)?
A: patients achieving serum testosterone ≦0.5 ng/mL (serum testosterone [1]; Day 28, median trough plasma degarelix 7.34 ng/mL): 96%; patients having testosterone ≦0.5 ng/mL (serum testosterone [1]; Day 84, median plasma degarelix 4.54 ng/mL): 83%; sustained testosterone suppression for 3 months following an injection (serum testosterone [2]; doses of 240 mg, 160 mg or 80 mg): failed to sustain testosterone suppression for 3 months; also recorded: none of the doses tested in the one-month dosing regimen program could sustain testosterone suppression for 3 months; testosterone response rate (serum testosterone [2]; monthly maintenance 80 mg (20 mg/mL)): 98%; testosterone response rate (serum testosterone [2]; monthly maintenance 160 mg (40 mg/mL)): 100%; patients with testosterone suppressed to castrate level (T≦0.5 ng/mL) (serum testosterone [2]; starting dose 240 mg (40 mg/mL), first 28 days): 95%; estimated median degarelix trough concentration (clinical [3]): < 9 ng/mL; level at 1 year (clinical [3]): ~7 ng/mL; level at 3 months after a previous dose (clinical [3]): 6.5 to 7.5 ng/mL; PSA, Median % Change from Baseline (PSA; 360/60 mg, Day 28): −83.8%; PSA, Median % Change from Baseline (PSA; 360/60 mg, Day 56): −93.8%; PSA, Median % Change from Baseline (PSA; 360/60 mg, Day 84): −95.0%; PSA, Median % Change from Baseline (PSA; 360/60 mg, Day 112): −95.5%; PSA, Median % Change from Baseline (PSA; 360/60 mg, Day 140): −96.2%; PSA, Median % Change from Baseline (PSA; 360/60 mg, Day 168): −96.8%; PSA, Median % Change from Baseline (PSA; 360/60 mg, Day 196): −95.9%; PSA, Median % Change from Baseline (PSA; 360/60 mg, Day 224): −96.4%; PSA, Median % Change from Baseline (PSA; 360/60 mg, Day 252): −97.0%; PSA, Median % Change from Baseline (PSA; 360/60 mg, Day 280): −97.0%; PSA, Median % Change from Baseline (PSA; 360/60 mg, Day 308): −97.3%; PSA, Median % Change from Baseline (PSA; 360/60 mg, Day 336): −97.5%; PSA, Median % Change from Baseline (PSA; 360/60 mg, Day 364): −96.9%; PSA, Median % Change from Baseline (PSA; 360/60 mg, Last visit): −96.9%; PSA, Median % Change from Baseline (PSA; 480/60 mg, Day 28): −78.9%; PSA, Median % Change from Baseline (PSA; 480/60 mg, Day 56): −90.9%; PSA, Median % Change from Baseline (PSA; 480/60 mg, Day 84): −93.4%; PSA, Median % Change from Baseline (PSA; 480/60 mg, Day 112): −95.3%; PSA, Median % Change from Baseline (PSA; 480/60 mg, Day 140): −95.5%; PSA, Median % Change from Baseline (PSA; 480/60 mg, Day 168): −96.5%; PSA, Median % Change from Baseline (PSA; 480/60 mg, Day 196): −96.2%; PSA, Median % Change from Baseline (PSA; 480/60 mg, Day 224): −96.6%; PSA, Median % Change from Baseline (PSA; 480/60 mg, Day 252): −96.9%; PSA, Median % Change from Baseline (PSA; 480/60 mg, Day 280): −96.5%; PSA, Median % Change from Baseline (PSA; 480/60 mg, Day 308): −97.0%; PSA, Median % Change from Baseline (PSA; 480/60 mg, Day 336): −97.4%; PSA, Median % Change from Baseline (PSA; 480/60 mg, Day 364): −97.1%; PSA, Median % Change from Baseline (PSA; 480/60 mg, Last visit): −96.5%; median reductions in PSA sustained throughout the study period (PSA; CS18, after Month 1): 96-97%; PSA, Median % Change from Baseline (PSA; Total (both arms), Day 28): −81.2%; PSA, Median % Change from Baseline (PSA; Total (both arms), Day 56): −92.9%; PSA, Median % Change from Baseline (PSA; Total (both arms), Day 84): −94.5%; PSA, Median % Change from Baseline (PSA; Total (both arms), Day 112): −95.4%; PSA, Median % Change from Baseline (PSA; Total (both arms), Day 140): −95.9%; PSA, Median % Change from Baseline (PSA; Total (both arms), Day 168): −96.6%; PSA, Median % Change from Baseline (PSA; Total (both arms), Day 196): −96.2%; PSA, Median % Change from Baseline (PSA; Total (both arms), Day 224): −96.5%; PSA, Median % Change from Baseline (PSA; Total (both arms), Day 252): −96.9%; PSA, Median % Change from Baseline (PSA; Total (both arms), Day 280): −97.0%; PSA, Median % Change from Baseline (PSA; Total (both arms), Day 308): −97.2%; PSA, Median % Change from Baseline (PSA; Total (both arms), Day 336): −97.4%; PSA, Median % Change from Baseline (PSA; Total (both arms), Day 364): −96.9%; PSA, Median % Change from Baseline (PSA; Total (both arms), Last visit): −96.8%; mean trough levels of degarelix [4]: approximately 12 ng/mL; estimated median degarelix trough concentration ([5]; 360 mg): above 9 ng/mL; estimated median degarelix trough concentration ([5]; 480 mg): above 9 ng/mL; hepatotoxicity: impairment of liver function [6]: do not show any clinically significant impairment of liver function; immediate anaphylactic reactions [6]: no immediate anaphylactic reactions reported; incidence of any injection site reaction [6]: 26%; injection site reactions of mild intensity [6]: 11%; injection site reactions of moderate intensity [6]: 11%; patients reporting severe injection site reactions [6]: 5%; level at 1 year (clinical [7]; 360 mg): ~10 ng/mL; level at 1 year (clinical [7]; 480 mg): ~13 ng/mL
